Source: patent US6984399B2 (Lek Pharmaceuticals d.d., priority 1999, dated 2006)

What was measured:
[1] = dissolution of lovastatin samples of varying particle size in water (Table I); assay type: physicochemical; conditions: suspension in 0.1% Tween 80 diluted 100 times
Description: At first we have prepared three samples of lovastatin* with varying particle size and compared dissolution** of those samples in water (Table I).

[2] = particle size and BET specific surface area of lovastatin crystals; assay type: physicochemical; conditions: for d(0.1) / d(0.5) / d(0.9): particle size; for d(0.9): 90% (volume) of particles below; for Spec. Pov.: specific surface area, BET method
[3] = room temperature; cited from earlier work
[4] = oral, cited from earlier work

Row | SMILES | concentration of dissolved lovastatin ([1]; time 0 min) [ng/mL] | concentration of dissolved lovastatin ([1]; time 1 min) [ng/mL] | concentration of dissolved lovastatin ([1]; time 3 min) [ng/mL] | concentration of dissolved lovastatin ([1]; time 5 min) [ng/mL] | concentration of dissolved lovastatin ([1]; time 10 min) [ng/mL] | concentration of dissolved lovastatin ([1]; time 30 min) [ng/mL] | concentration of dissolved lovastatin ([1]; time 50 min) [ng/mL] | d(0.1) [2] [μm] | d(0.5) [2] [μm] | d(0.9) [2] [μm] | Spec. Pov. [2] [m^2/g] | volume of water required to dissolve 20 mg [3] | time to peak concentration in blood of active form ([4]; post-dose) [h] | share of total dose that crosses the intestinal membrane [4] [%]
1 | CC[C@H](C)C(=O)O[C@H]1C[C@@H](C)C=C2C=C[C@H](C)[C@H](CC[C@@H]3C[C@@H](O)CC(=O)O3)[C@H]21 [C, lovastatin] | 0 | 250 | 300 | 400 | 560 | 820 | 940 | 17 | 54 | 163 | 0.7 |  |  | 
2 | CC[C@H](C)C(=O)O[C@H]1C[C@@H](C)C=C2C=C[C@H](C)[C@H](CC[C@@H]3C[C@@H](O)CC(=O)O3)[C@H]21 [Example 4, lovastatin] |  |  |  |  |  |  |  |  |  | 163 |  |  |  | 
3 | CC[C@H](C)C(=O)O[C@H]1C[C@@H](C)C=C2C=C[C@H](C)[C@H](CC[C@@H]3C[C@@H](O)CC(=O)O3)[C@H]21 [B, lovastatin] | 0 | 500 | 680 | 710 | 780 | 870 | 950 | 1.4 | 7.9 | 31 | 2.2 |  |  | 
4 | CC[C@H](C)C(=O)O[C@H]1C[C@@H](C)C=C2C=C[C@H](C)[C@H](CC[C@@H]3C[C@@H](O)CC(=O)O3)[C@H]21 [Example 5, lovastatin] |  |  |  |  |  |  |  |  |  | 77 | 1.3 |  |  | 
5 | CC[C@H](C)C(=O)O[C@H]1C[C@@H](C)C=C2C=C[C@H](C)[C@H](CC[C@@H]3C[C@@H](O)CC(=O)O3)[C@H]21 [lovastatin] |  |  |  |  |  |  |  |  |  |  |  | about 15 litres | 2.8 | 31
6 | CC[C@H](C)C(=O)O[C@H]1C[C@@H](C)C=C2C=C[C@H](C)[C@H](CC[C@@H]3C[C@@H](O)CC(=O)O3)[C@H]21 [Example 6, lovastatin] |  |  |  |  |  |  |  |  |  | 22 |  |  |  | 
7 | CC[C@H](C)C(=O)O[C@H]1C[C@@H](C)C=C2C=C[C@H](C)[C@H](CC[C@@H]3C[C@@H](O)CC(=O)O3)[C@H]21 [A, lovastatin] | 0 | 650 | 770 | 780 | 810 | 880 | 900 | 1.6 | 6 | 22 | 3.3 |  |  | 
